{"source": "patent US10889552B2", "about": "“Dihydroxybenzamide compound having HSP90 inhibitory activity or pharmaceutically acceptable salt thereof, and medical use thereof” (priority 2016, dated 2021)", "key": {"H1975 cells [1]": {"tested_on": "H1975 cells", "test": "Cell viability by MTS analysis in H1975 cells resistant to Gefitinib", "format": "cell-based", "settings": "H1975, cultured for 3 days", "experimental": "To confirm the cell viability according to the concentration of the compound synthesized in H1975 cells (ATCC) resistant to Gefitinib, MTS [3-(4,5-dimethylthiazol-2-yl)-5-[…]carboxymethoxyphenyl)-2-(4-sulfophenyl)-2H-terazolium, inner salt] analysis was performed. When the cells were cultured so as to occupy 80% of the bottom of the culture dish, the cells were detached and diluted with RPMI 1640 medium to a concentration of 1.5×10^3 cells/well. Each 100 μL of the suspension was added to each well of a 96-well plate and cultured for 14 hours."}, "Log P": {"test": "Log P", "format": "physicochemical", "settings": "text: measured values of Log P", "experimental": "All experimental data were analyzed using Prism software (version 5.0, Graphpad Software, San Diego, Calif.). In addition, tPSA (Topological Polar Surface Area) calculated using Cherndraw software and the measured values of Log P are shown in Tables 1 and 2 below."}, "H1975": {"tested_on": "H1975", "test": "Cell proliferation / survival inhibition by MTS analysis (H1975)", "format": "cell-based", "settings": "for Inhibition rate at 10 μM (%) / Inhibition rate at 30 μM (%): test system not given", "experimental": "Sk-Br3 (Korean cell line bank), a breast cancer cell, and H1975 cell (ATCC), a nonsmall cell lung cancer, were cultured in RPMI 1640 containing 25 mM HEPES (4-(2-hydroxyethyl)-1-piperazineethanesulfonic acid) and RPMI 1640 containing L-glutamine (containing streptomycin ([…]), penicillin (100 units/mL) and 10% fetal bovine serum (FBS)).\nNext, non-metastatic lung cancer cells were treated with Compound 17 and the cell proliferation rate or cell survival rate was measured by MTS [3-(4,5-dimethylthiazol-2-yl)-5-(3-carboxymethoxyphenyl)-1-2H-tetrazolium, inner salt] analysis.\nCells were dispensed in 96-well plates at 3000 cell/well (Sk-Br3) and 2000 cell/well (H1975), and 100 μL of the medium was added per well and then was incubated overnight.\nCell proliferation was evaluated using the Promega Cell Titer 96 Aqueous One Solution cell proliferation assay.\nAfter compound and cell culture, 20 μL of assay substrate solution was added to each well and incubated at 37° C. for an additional 1 hour.\nCell proliferation was confirmed by measuring the absorbance at 490 nm using a microplate reader (Tecan Infinite F200 Proplate reader)."}, "[2]": {"tested_on": "HSP90 client protein of EGFR, Her2, Met, Akt, c-Raf, Cpk4", "test": "Protein expression analysis (western blot) after Compound 17 treatment", "format": "cell-based", "settings": "0.05, 0.1, 0.5 or 1 μM, 24 hours, FIG. 4", "experimental": "Next, the cells were dispensed into 100 mm culture dishes (1×10^6/dish) and adhered to the bottom surface overnight. Compound 17 at a concentration of 0.05, 0.1, 0.5 or 1 μM was added to the cells, followed by further culture for 24 hours.\nIn addition, cells were treated with DMSO (1%) or geladinamycin (1 μM) as a control and cultured for 24 hours.\nThe cultured cells were harvested and lysed in ice-cold lysis buffer (23 mM Tris-HCl pH 7.6, 130 mM NaCl, 1% NP40, […], 0.1% SDS (sodium dodecylsulfate)), and 30 μg of the lysate was separated by SDS-PAGE (SDS-polyacrylamide gel electrophoresis) and transferred to a PVDF membrane (Bio-Rad).\nMembranes were blocked with TBST (Tween 20 containing iris-Buffered Saline) containing 5% skim milk and incubated with the respective primary antibodies [EGFR (Epidermal growth factor receptor), Her2 (human epidermal growth factor receptor type 2), Met, N-cadherin, E-cadherin, α-tubulin, acetyl-α-tubulin, protein kinase B (Akt), c-Raf, Cdk4 (Cyclin-dependent kinase 4), HSP90, HSP70, PARP (Poly […] Polymerase), caspase 3, cleaved caspase 3, truncated caspase 8, B-cell lymphoma 2 (Bcl-2). Bax or β-Actin, purchased from Cell Signaling Technology (USA)].\nAfter binding to a secondary antibody conjugated with horseradish peroxidase, the protein was visualized by ECL (electrochemiluminescence, GE healthcare, USA)."}, "H1975 cells [3]": {"tested_on": "H1975 cells", "test": "H1975 colony formation inhibitory effect (clonogenic assay)", "format": "cell-based", "settings": "at 0.05 µM), 3 weeks, FIG. 3", "experimental": "H1975 cells were treated with Compound 17 at a concentration of 0.05 or 0.5 μM for 3 weeks and then clogenic assay was performed.\nFirst, RPMI1640 medium (10% FBS, 0.48% agar) was added to a 6-well plate and hardened, and then, 10000 cells (H1975) were dispensed in a medium containing RPMI1640 medium (10% FBS, 0.33% agar) and solidified. After solidification, the cells were treated with compound at a concentration of 0.05 or 0.5 […] for 24 hours, followed by culturing for 3 weeks, and then colony formation was confirmed using a crystal violet staining solution."}, "[4]": {"tested_on": "HSP90 client protein (Her2, EGFR, Met, c-Raf, Akt), HSP70", "test": "Analysis of protein expression (western blot) in H1975 cells, Compound 21f", "format": "cell-based", "experimental": "Compound 21f having good efficacy was selected and HSP90 client protein proliferation effect in the same cell line was confirmed, in which the HSP90 client proteins were Her2 (human EGFR-related 2), EGFR (epidermal growth factor receptor), Met and c-Raf were used.\nH1975 cells resistant to Gefitinib were cultured in a medium supplemented with 10% fetal bovine serum (FBS) for 24 hours, and the cells were detached, harvested and diluted with a RPMI 1640 medium so as to be 5×10^5 cells/well. Each 5 mL of the suspension was added to […] culture dish and cultured for 24 hours. Then, the medium was changed to the culture solution treated with each compound of concentration (21f 0, 0.05, 0.1, 0.5 or 1 μM, GA: 1 μM), and cultured for 24 hours. After culture, the cells were harvested and centrifuged at 1300 rpm for 5 minutes at 4° C., and the supernatant was removed. The pellet was washed with phosphate buffered saline, centrifuged once again under the same conditions, and the supernatant was removed. Lysis buffer was added to the remaining pellet and lysed by vortexing at 5 minute intervals for 30 minutes. The supernatant was separated by centrifugation at 16000 rcf for 4 minutes at 4° C., and proteins were quantified using BCA ([…]) kit. SDS-PAGE (sodium dodecylsulfate-polyacrylamide gel electrophoresis) was performed using 10, 12% running gel and 4% stacking gel (10 mA per gel). The separated proteins were transferred to an immunoblot PVDF, membrane (polyvinylidene fluoride membrane) at 100 V for 75 minutes. The membranes were blocked with 5% skim milk solution for 2 hours and then added a primary antibody diluted in the ratio of 1:750-1,000 in 0.1% tween-20 solution and reacted at 4° C. for 12 hours. After washing three times with TBS-T (Tris-buffered saline and Tween 20 containing Tween 20) and detected with an image analyzer using ECL (enhanced chemiluminescence) solution."}}}
{"compound": "5-chloro-2,4-dihydroxy-n-methyl-n-(2-methylbenzyl)benzamide [Compound 16a]", "values": [{"measurement": "EC50", "setting": "H1975 cells [1]", "result": 49.3, "unit": "µM"}]}
{"compound": "5-chloro-2,4-dihydroxy-n-methyl-n-(3-methylbenzyl)benzamide [Compound 14i]", "values": [{"measurement": "EC50", "setting": "H1975 cells [1]", "result": 47.5, "unit": "µM"}]}
{"compound": "O=C(c1cc(Cl)c(O)cc1O)N1CCCCC1", "note": "[Compound 11b]", "values": [{"measurement": "LogP", "setting": "Log P", "result": 1.69}, {"measurement": "Inhibition rate at 10 μM (%)", "setting": "H1975", "result": 7.6, "unit": "%"}, {"measurement": "Inhibition rate at 30 μM (%)", "setting": "H1975", "result": 26.3, "unit": "%"}]}
{"compound": "CC(=O)N1CCN(C(=O)c2cc(Cl)c(O)cc2O)CC1", "note": "[Compound 11f, 1-(4-(5-chloro-2,4-dihydroxybenzol)piperazin-1-yl)ethanone]", "values": [{"measurement": "LogP", "setting": "Log P", "result": 0.25}, {"measurement": "Inhibition rate at 10 μM (%)", "setting": "H1975", "result": 0, "unit": "%"}, {"measurement": "Inhibition rate at 30 μM (%)", "setting": "H1975", "result": 10.5, "unit": "%"}]}
{"compound": "COc1ccc(CN(C)C(=O)c2cc(Cl)c(O)cc2O)cc1", "note": "[Compound 14c, 5-chloro-2,4-dihydroxy-n-(4-methoxybenzyl)-n-methylbenzamide]", "values": [{"measurement": "EC50", "setting": "H1975 cells [1]", "result": 16.7, "unit": "µM"}]}
{"compound": "COc1ccc(CN(C)C(=O)c2cc(Cl)c(O)cc2O)cc1OC", "note": "[Compound 14d, 5-chloro-n-(3,4-dimethoxybenzyl)-2,4-dihydroxy-n-methylbenzamide]", "values": [{"measurement": "EC50", "setting": "H1975 cells [1]", "result": 33.4, "unit": "µM"}]}
{"compound": "COc1cc(CN(C)C(=O)c2cc(Cl)c(O)cc2O)c(Cl)c(OC)c1OC", "note": "[Compound 14g, 5-chloro-n-(2-chloro-3,4,5-trimethoxybenzyl)-2,4-dihydroxy-n-methylbenzamide]", "values": [{"measurement": "EC50", "setting": "H1975 cells [1]", "result": 33.8, "unit": "µM"}]}
{"compound": "Cc1ccc(CN(C)C(=O)c2cc(Cl)c(O)cc2O)cc1", "note": "[Compound 16b, 5-chloro-2,4-dihydroxy-n-methyl-n-(4-methylbenzyl)benzamide]", "values": [{"measurement": "EC50", "setting": "H1975 cells [1]", "result": 34.3, "unit": "µM"}]}
{"compound": "CC(C)c1cc(C(=O)N2CCN(C)CC2c2ccccc2)c(O)cc1O", "note": "(centres unmarked) [Compound 17, (2,4-dihydroxy-5-isopropylphenyl)(4-methyl-2-phenylpiperazin-1-yl)methanone]", "values": [{"measurement": "HSP protein inhibition / degradation of HSP90 client protein", "setting": "[2]", "result": "inhibited HSP protein in concentration-dependent manner"}, {"measurement": "proliferation rate of the cells", "setting": "H1975; 0-70 μM, 1, 2 and 3 days, FIG. 2A", "result": "inhibited in a concentration-dependent manner"}, {"measurement": "colony formation of H1975", "setting": "H1975 cells [3]", "result": "inhibited the colony formation"}]}
{"compound": "CCNC(=O)c1ccc(CN(C)C(=O)c2cc(Cl)c(O)cc2O)cc1", "note": "[Compound 21b, 5-chloro-n-(4-(ethylcarbamoyl)benzyl)-2,4-dihydroxy-n-methylbenzamide]", "values": [{"measurement": "EC50", "setting": "H1975 cells [1]", "result": 21.7, "unit": "µM"}]}
{"compound": "CCCNC(=O)c1ccc(CN(C)C(=O)c2cc(Cl)c(O)cc2O)cc1", "note": "[Compound 21c, 5-chloro-2,4-dihydroxy-n-methyl-n-(4-(propylcarbamoyl)benzyl)benzamide]", "values": [{"measurement": "EC50", "setting": "H1975 cells [1]", "result": 20.8, "unit": "µM"}]}
{"compound": "CCCNC(=O)c1ccc(CN(C)C(=O)c2cc(C(C)C)c(O)cc2O)cc1", "note": "[Compound 21f, 2,4-dihydroxy-5-isopropyl-n-methyl-n-(4-(propylcarbamoyl)benzyl) benzamide]", "values": [{"measurement": "proliferation (expression) of the HSP90 client protein", "setting": "[4]; 0, 0.05, 0.1, 0.5 or 1 μM, 24 hours, FIG. 5", "result": "inhibited in a concentration-dependent manner"}, {"measurement": "concentration at which Akt expression was significantly decreased", "setting": "[4]; H1975, 24 hours", "result": 0.5, "unit": "µM"}, {"measurement": "concentration at which EGFR expression was significantly decreased", "setting": "[4]; H1975, 24 hours", "result": 0.1, "unit": "µM"}, {"measurement": "concentration at which Her2 expression was significantly decreased", "setting": "[4]; H1975, 24 hours", "result": 0.5, "unit": "µM"}, {"measurement": "concentration at which Met expression was significantly decreased", "setting": "[4]; H1975, 24 hours", "result": 0.5, "unit": "µM"}, {"measurement": "concentration at which expression of HSP70 was increased", "setting": "[4]; H1975, 24 hours", "result": 0.5, "unit": "µM"}]}
